Experimental data taken from patent US12545672B2, “Antibiotic compounds, methods of manufacturing the same, pharmaceutical compositions containing the same and uses thereof” (Debiopharm International S.A., priority 2018, dated 2026).
Read-outs that look alike come from different tables or passages of the source.

Tests used:
Neisseria gonorrhoeae = experiment: MIC50 by CLSI agar dilution on a panel of N. gonorrhoeae clinical isolates; format: cell-based; details: Neisseria gonorrhoeae
Method: MIC50: MICs were determined in accordance with the appropriate Clinical and Laboratory Standards Institute (CLSI) methodology by the agar dilution susceptbility testing method in GC agar base.

[1] = Prediction of hepatic extraction ratio from liver microsome stability; format: in vitro ADME; details: human liver microsomes, Well-Stirred model
[2] = Mouse cassette PK and oral bioavailability determination; format: in vivo, Female BALB/c mice; details: female, BALB/c, mouse, plasma; iv 1 mg/kg, po 2 mg/kg, cassette dosing; read-out: Mouse F (%)
Method: Dose volumes were 5 ml/kg and 10 ml/kg for IV and oral administration, respectively. Compounds were co-formulated in a 10% DMSO (v/v) and 40% Captisol (w/v) in saline solution formulation (up to 3 compounds in a cassette). […] Tmax, Cmax, AUC, clearance, volume of distribution and oral bioavailability were estimated from the plasma concentrations using non-compartmental pharmacokinetic models. In particular, oral bioavailability (F %) was defined as F=(Doseiv*AUCpo)/(Dosepo*AUCiv)*100

[3] = biological target: Neisseria gonorrhoeae FabI (Neisseria gonorrhoeae, UniProt A0ACH0F547); experiment: Neisseria gonorrhoeae FabI inhibition assay (NADH consumption)
[4] = agar dilution, GC agar base, minimum of 15 clinical isolates, read-out: MIC50

Chain of Neisseria gonorrhoeae FabI (A0ACH0F547 1-261): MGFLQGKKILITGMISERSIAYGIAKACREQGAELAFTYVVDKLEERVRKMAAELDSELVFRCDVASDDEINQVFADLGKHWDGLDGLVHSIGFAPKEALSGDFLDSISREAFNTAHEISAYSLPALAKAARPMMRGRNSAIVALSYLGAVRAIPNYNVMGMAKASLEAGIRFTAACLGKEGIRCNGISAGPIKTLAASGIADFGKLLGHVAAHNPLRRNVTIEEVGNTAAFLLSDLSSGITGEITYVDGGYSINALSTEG

SMILES | Predict Human hep ER [1] | bioavailability [2] [%] | IC50 [3] [nM] | MIC50 (Neisseria gonorrhoeae; [4]) [µg/mL] | MIC50 (Neisseria gonorrhoeae) [µg/mL]
Cc1oc2c(Oc3ccc(C#N)cc3)cccc2c1CN(C)C(=O)/C=C/c1cnc2c(c1)NCCC(=O)N2 [Compound 80, (E)-N-((7-(4-cyanophenoxy)-2-methylbenzofuran-3-yl)methyl)-N-methyl-3-(4-oxo-2,3,4,5-tetrahydro-1H-pyrido[2,3-b][1,4]diazepin-8-yl)acrylamide] | 0.25 | 35 | < 10 |  | < 1
O=C1CCNc2cc(/C=C/C(=O)N3C[C@H]4CC(c5ccc(Oc6cncs6)cc5)=C[C@H]4C3)cnc2N1 [Compound 96, 8-((E)-3-Oxo-3-((3aS,6aR)-5-(4-(thiazol-5-yloxy)phenyl)-3,3a,4,6a-tetrahydrocyclopenta[c]pyrrol-2(1H)-yl)prop-1-en-1-yl)-1,2,3,5-tetrahydro-4H-pyrido[2,3-b][1,4]diazepin-4-one] | 0.2 | 16 | < 10 | < 1 | 
Cc1oc2c(Oc3ccc4c(c3)OCO4)cccc2c1CN(C)C(=O)/C=C/c1cnc2c(c1)NCCC(=O)N2 [Compound 119, (E)-N-((7-(Benzo[d][1,3]dioxol-5-yloxy)-2-methylbenzofuran-3-yl)methyl)-N-methyl-3-(4-oxo-2,3,4,5-tetrahydro-1H-pyrido[2,3-b][1,4]diazepin-8-yl)acrylamide] | 0.08 |  | < 10 | < 1 | 
COc1cccc(Oc2ccc(C3=C[C@H]4CN(C(=O)/C=C/c5cnc6c(c5)NCCC(=O)N6)C[C@H]4C3)cc2)c1 [Compound 129, 8-((E)-3-((3rS,6rR)-5-(4-(3-methoxyphenoxy)phenyl)-3,3r,4,6r-tetrahydrocyclopenta[c]pyrrol-2(1H)-yl)-3-oxoprop-1-en-1-yl)-1,2,3,5-tetrahydro-4H-pyrido[2,3-b][1,4]diazepin-4-one] | 0.02 | 26 | < 10 | < 1 | 
Cc1oc2c(Oc3ccc4c(c3)N(C)CC4)cccc2c1CN(C)C(=O)/C=C/c1cnc2c(c1)NCCC(=O)N2 [Compound 134, (E)-N-Methyl-N-((2-methyl-7-((1-methylindolin-6-yl)oxy)benzofuran-3-yl)methyl)-3-(4-oxo-2,3,4,5-tetrahydro-1H-pyrido[2,3-b][1,4]diazepin-8-yl)acrylamide] | 0.43 | 9 | < 10 | < 1 | 
Cc1oc2c(Oc3ccc4c(c3)OCC4)cccc2c1CN(C)C(=O)/C=C/c1cnc2c(c1)NC(C)(C)C(=O)N2 [Compound 164, (E)-N-((7-((2,3-dihydrobenzofuran-6-yl)oxy)-2-methylbenzofuran-3-yl)methyl)-3-(2,2-dimethyl-3-oxo-1,2,3,4-tetrahydropyrido[2,3-b]pyrazin-7-yl)-N-methylacrylamide] |  |  | < 10 | < 1 | 
Cc1oc2c(N)cccc2c1CN(C)C(=O)/C=C/c1cnc2c(c1)NC[C@@](C)(O)C(=O)N2 [Compound 167, (R,E)-N-((7-amino-2-methylbenzofuran-3-yl)methyl)-3-(3-hydroxy-3-methyl-4-oxo-2,3,4,5-tetrahydro-1H-pyrido[2,3-b][1,4]diazepin-8-yl)-N-methylacrylamide] |  |  | < 10 | < 1 | 
Cc1oc2c(N)cccc2c1CN(C)C(=O)/C=C/c1cnc2c(c1)CCCC(=O)N2 [Compound 168, (E)-N-((7-amino-2-methylbenzofuran-3-yl)methyl)-N-methyl-3-(8-oxo-6,7,8,9-tetrahydro-5H-pyrido[2,3-b]azepin-3-yl)acrylamide] |  |  | < 10 | < 1 | 
Cc1oc2ccccc2c1CN(C)C(=O)/C=C/c1cnc2c(c1)NCCC(=O)N2 [Compound 170, (E)-N-Methyl-N-((2-methylbenzofuran-3-yl)methyl)-3-(4-oxo-2,3,4,5-tetrahydro-1H-pyrido[2,3-b][1,4]diazepin-8-yl)acrylamide] |  |  | < 10 | < 1 | 
Cc1oc2c(Oc3ccc4c(c3)CCN4)cccc2c1CN(C)C(=O)/C=C/c1cnc2c(c1)CCCC(=O)N2 [Compound 180, (E)-N-((7-(indolin-5-yloxy)-2-methylbenzofuran-3-yl)methyl)-N-methyl-3-(8-oxo-6,7,8,9-tetrahydro-5H-pyrido[2,3-b]azepin-3-yl)acrylamide] |  |  | < 10 | < 1 | 
Cc1oc2c(Oc3ccc4c(c3)OCC4)cccc2c1CN(C)C(=O)/C=C/c1cnc2c(c1)NC[C@@](C)(O)C(=O)N2 [Compound 182, (R,E)-N-((7-((2,3-dihydrobenzofuran-6-yl)oxy)-2-methylbenzofuran-3-yl)methyl)-3-(3-hydroxy-3-methyl-4-oxo-2,3,4,5-tetrahydro-1H-pyrido[2,3-b][1,4]diazepin-8-yl)-N-methylacrylamide] |  |  | < 10 | < 1 | 
COc1cccc(Oc2cccc3c(CN(C)C(=O)/C=C/c4cnc5c(c4)NC[C@@](C)(O)C(=O)N5)c(C)oc23)c1 [Compound 183, (R,E)-3-(3-hydroxy-3-methyl-4-oxo-2,3,4,5-tetrahydro-1H-pyrido[2,3-b][1,4]diazepin-8-yl)-N-((7-(3-methoxyphenoxy)-2-methylbenzofuran-3-yl)methyl)-N-methylacrylamide] |  | 16 | < 10 | < 1 | 
COc1cccc(Oc2cccc3c(CN(C)C(=O)/C=C/c4cnc5c(c4)CCCC(=O)N5)c(C)oc23)c1 [Compound 186, (E)-N-((7-(3-methoxyphenoxy)-2-methylbenzofuran-3-yl)methyl)-N-methyl-3-(8-oxo-6,7,8,9-tetrahydro-5H-pyrido[2,3-b]azepin-3-yl)acrylamide] |  |  | < 10 | < 1 | 
COc1cccc(Oc2cccc3c(CN(C)C(=O)/C=C/c4cnc5c(c4)CCCC(=O)N5)c(C)sc23)c1 [Compound 194, (E)-N-((7-(3-methoxyphenoxy)-2-methylbenzo[b]thiophen-3-yl)methyl)-N-methyl-3-(8-oxo-6,7,8,9-tetrahydro-5H-pyrido[2,3-b]azepin-3-yl)acrylamide] |  | 12 | < 10 | < 1 | 

More lines, main results first:

Predict Human hep ER [1] | bioavailability [2] [%] | IC50 [3] [nM] | MIC50 (Neisseria gonorrhoeae; [4]) [µg/mL] | SMILES | MIC50 (Neisseria gonorrhoeae) [µg/mL]
 |  | < 10 | < 1 | Cc1c(CN(C)C(=O)/C=C/c2cnc3c(c2)N[C@H](C)CC(=O)N3)oc2ccccc12 [Compound 214, (E)-N-methyl-N-[(3-methylbenzofuran-2-yl)methyl]-3-[(2R)-2-methyl-4-oxo-1,2,3,5-tetrahydropyrido[2,3-b][1,4]diazepin-8-yl]prop-2-enamide] | 
 |  | < 10 | < 1 | Cc1c(CN(C)C(=O)/C=C/c2cnc3c(c2)NC[C@@H](O)C(=O)N3)oc2ccccc12 [Compound 229, (R,E)-3-(3-Hydroxy-4-oxo-2,3,4,5-tetrahydro-1H-pyrido[2,3-b][1,4]diazepin-8-yl)-N-methyl-N-((3-methylbenzofuran-2-yl)methyl)acrylamide] | 
 |  | < 10 | < 1 | Cc1c(CN(C)C(=O)/C=C/c2cnc3c(c2)NC[C@H](O)C(=O)N3)oc2ccccc12 [Compound 230, (S,E)-3-(3-Hydroxy-4-oxo-2,3,4,5-tetrahydro-1H-pyrido[2,3-b][1,4]diazepin-8-yl)-N-methyl-N-((3-methylbenzofuran-2-yl)methyl)acrylamide] | 
 |  | < 10 | < 1 | CCC1(O)Cc2cc(/C=C/C(=O)N(C)Cc3oc4ccccc4c3C)cnc2NC1=O (stereo not shown) [Compound 252, (E)-3-(6-ethyl-6-hydroxy-7-oxo-5,6,7,8-tetrahydro-1,8-naphthyridin-3-yl)-N-methyl-N-((3-methylbenzofuran-2-yl)methyl)acrylamide] | 
 |  | < 10 | < 1 | Cc1c(CN(C)C(=O)/C=C/c2cnc3c(c2)NCC(CO)C(=O)N3)oc2ccccc12 (stereo not shown) [Compound 270, (E)-3-(3-(hydroxymethyl)-4-oxo-2,3,4,5-tetrahydro-1H-pyrido[2,3-b][1,4]diazepin-8-yl)-N-methyl-N-((3-methylbenzofuran-2-yl)methyl)acrylamide] | 
 | 43 | < 10 | < 1 | Cc1oc2c(N)cccc2c1CN(C)C(=O)/C=C/c1cnc2c(c1)NC[C@H](O)C(=O)N2 [Compound 276, (S,E)-N-((7-amino-2-methylbenzofuran-3-yl)methyl)-3-(3-hydroxy-4-oxo-2,3,4,5-tetrahydro-1H-pyrido[2,3-b][1,4]diazepin-8-yl)-N-methylacrylamide] | 
0.34 |  | < 10 | < 1 | Cc1oc2c(N)cccc2c1CN(C)C(=O)/C=C/c1cnc2c(c1)NC(C)(C)C(=O)N2 [Compound 287, (E)-N-((7-amino-2-methylbenzofuran-3-yl)methyl)-3-(2,2-dimethyl-3-oxo-1,2,3,4-tetrahydropyrido[2,3-b]pyrazin-7-yl)-N-methylacrylamide] | 
0.1 |  | < 10 | < 1 | Cc1oc2c(N)cccc2c1CN(C)C(=O)/C=C/c1cnc2c(c1)N[C@H](C)[C@H](O)C(=O)N2 [Compound 290, (E)-N-((7-amino-2-methylbenzofuran-3-yl)methyl)-3-((2R,3S)-3-hydroxy-2-methyl-4-oxo-2,3,4,5-tetrahydro-1H-pyrido[2,3-b][1,4]diazepin-8-yl)-N-methylacrylamide] | 
